Assay results published in patent publication US11814445B2, “Cyclic polypeptides for PCSK9 inhibition” (Ra Pharmaceuticals, Inc., priority 2018, dated 2023).
pIC50: −log10 of the molar value. Numbered stars: 1 amine (or outer) side, 2 acyl side, 3 side chain; on linkers, the order of the positions; unused ones are H or OH. Bridge positions count the residues as written; N and C are the ends. Square brackets hold non-standard residues; d marks the D form. Peptide text beside a SMILES is read from it. Phe(4-CF3) = N[C@@H](Cc1ccc(C(F)(F)F)cc1)C(=O)O; Trp(5-F) = N[C@@H](Cc1c[nH]c2ccc(F)cc12)C(=O)O; Phe(3-CN) = N#Cc1cccc(C[C@H](N)C(=O)O)c1; X1 = O=C(CCSCc1cccc(CSCCN[*:1])c1)[*:2]; Phe(4-F) = N[C@@H](Cc1ccc(F)cc1)C(=O)O; Pro(4,4-F2) = O=C(O)[C@@H]1CC(F)(F)CN1; mXylylene = c1cc(C[*:1])cc(C[*:2])c1; NMeY = CN[C@@H](Cc1ccc(O)cc1)C(=O)O; Mpa = O=C(O)CCS

Tests used:
PCSK9 = target: T1, PCSK9 (Homo sapiens, UniProt Q8NBP7); assay: PCSK9 Alexa FRET Standard assay (displacement of AlexaFluor647 tagged cyclic peptide Reagent A); format: binding; details: 0.5 nM PCSK9, 20 nM AF cyclic peptide Reagent A
T1 construct: biotin (biotinylated)
Protocol: A solution containing 1 nM biotinylated PCSK9+2.5 nM Lance Streptavidin Europium (Strep-Eu) was made in 50 mM HEPES pH 7.4, 0.15 M NaCl, 5 mM CaCl2), 0.01% BSA, and 0.01% Surfactant P20. A separate solution containing 40 nM of the AlexaFluor tagged cyclic peptide was made in the same buffer system. An Echo was used to transfer 0.750 ul of compound to an assay plate followed by the addition of 15 ul of PCSK9+Stept-Eu and 15 ul of AF peptide. The final assay volume was 30.750 ul containing 0.5 nM PCSK9, 1.25 nM Strep-Eu, and 20 nM AF cyclic peptide. The reaction was incubated at room temperature for at least two hours prior to fluorescence measurements using an Envision Multilabel Reader. IC50 values were determined by fitting data to a sigmoidal dose-response curve using nonlinear regression. Ki was then calculated from the IC50 and the KD of AF cyclic peptide. Counts (B-counts) of the europium-labeled PCSK9 were followed to observe if compounds were […]. A fall off of the B-counts likely indicated a false positive of inhibition. Data from this procedure was reported as “A=‘numerical value’ (nanomolar)”

[1] = target: human PCSK9 / human LDLR EGFa domain (Homo sapiens, UniProt Q8NBP7); assay: TR-FRET assay of inhibition of the PCSK9-LDLR protein-protein interaction; format: binding; details: 20 nM human PCSK9, 20 nM human LDLR EGFa domain, 2 hours room temperature
Method in brief: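 20 nM biotin-avitag PCSK9 + 20 nM His-LDLR EGFa; 5 nM Ulight-SA / 5 nM Eu-anti-His; 2 h RT; HEPES 50 mM, NaCl 150 mM, CaCl2 5 mM, 0.01% BSA, 0.01% P20. Half-maximal inhibition, 4-parameter fit.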

T1 sequence (Q8NBP7 153-692): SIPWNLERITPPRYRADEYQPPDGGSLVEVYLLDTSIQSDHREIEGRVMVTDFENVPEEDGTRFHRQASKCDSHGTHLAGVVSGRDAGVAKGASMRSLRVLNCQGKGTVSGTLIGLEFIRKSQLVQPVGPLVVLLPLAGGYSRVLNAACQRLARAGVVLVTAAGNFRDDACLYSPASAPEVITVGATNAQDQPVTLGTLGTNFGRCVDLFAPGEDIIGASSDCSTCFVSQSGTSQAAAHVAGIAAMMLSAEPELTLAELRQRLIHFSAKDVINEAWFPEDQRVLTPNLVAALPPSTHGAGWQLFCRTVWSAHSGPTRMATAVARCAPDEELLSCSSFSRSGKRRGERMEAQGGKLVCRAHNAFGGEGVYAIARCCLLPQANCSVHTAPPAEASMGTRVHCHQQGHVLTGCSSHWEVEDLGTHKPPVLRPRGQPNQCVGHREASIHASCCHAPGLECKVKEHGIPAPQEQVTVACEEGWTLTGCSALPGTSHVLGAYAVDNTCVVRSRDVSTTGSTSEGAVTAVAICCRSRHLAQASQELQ
Chain of human PCSK9 / human LDLR EGFa domain (Q8NBP7 153-692): as above

| Compound | pIC50 (PCSK9) | pIC50 [1] |
| --- | --- | --- |
| COc1ccc(C[C@@H]2NC(=O)[C@H]([C@@H](C)O)NC(=O)CN3CCCCOc4cccc(c4)C[C@H](NC(=O)[C@@H](C)NC(=O)[C@H](C)NC(=O)CCSCc4cccc(c4)CSCCNC(=O)[C@]4(C)CCCN4C2=O)C(=O)N[C@H](Cc2c[nH]c4ccc(F)cc24)C3=O)cc1 [Compound 126] | 7.00 to 9.00 | 7.00 to 9.00 |
| COc1ccc(C[C@@H]2NC(=O)[C@H](C)NC(=O)[C@@H]3CCCN3C(=O)[C@@H]3Cc4cn(c5ccc(F)cc45)Cc4cn(nn4)-c4c(cccc4CSCCC(=O)N[C@H](C)C(=O)NCC(=O)N[C@@H](Cc4c[nH]c5ccc(F)cc45)C(=O)N3)CSCCNC(=O)[C@]3(C)CCCN3C2=O)cc1 [Compound 128] | 7.00 to 9.00 | 6.00 to 7.00 |
| COc1ccc(C[C@H]2C(=O)N3CCC[C@H]3C(=O)NCCSCc3cccc(c3)CSCCC(=O)N3CCC[C@H]3C(=O)N[C@H](C)C(=O)N[C@@H](Cc3c[nH]c4ccc(F)cc34)C(=O)N[C@@H](Cc3c[nH]c4ccc(F)cc34)C(=O)N3CCC[C@H]3C(=O)N[C@@H](C)C(=O)N2C)cc1 [Compound 053] (cyclo(A[NMeY](Me)P[X1]P[dA][Trp(5-F)][Trp(5-F)]P)) | 4.92 to 6.00 | 6.00 to 7.00 |
| COc1ccc(C[C@@H]2NC(=O)[C@H]([C@@H](C)O)NC(=O)[C@@H]3CCCN3C(=O)[C@H]3Cc4cn(c5ccc(F)cc45)Cc4cn(nn4)-c4cc(cc(c4)CSCCC(=O)N[C@@H](C)C(=O)N[C@H](C)C(=O)N[C@@H](Cc4c[nH]c5ccc(F)cc45)C(=O)N3)CSCCNC(=O)[C@]3(C)CCCN3C2=O)cc1 [Compound 129] | 4.92 to 6.00 | 4.92 to 6.00 |
| COc1ccc(C[C@@H]2NC(=O)[C@H](C)NC(=O)[C@@H]3CCCN3C(=O)[C@H](NC(=O)[C@H](Cc3c[nH]c4ccc(F)cc34)NC(C)=O)Cc3cn(c4ccc(F)cc34)Cc3cn(nn3)-c3cccc(c3)CSCCNC(=O)[C@]3(C)CCCN3C2=O)cc1 [Compound 101] | 7.00 to 9.00 | 7.00 to 9.00 |

Now from value to compound:

| pIC50 (PCSK9) | pIC50 [1] | Compound |
| --- | --- | --- |
| 7.00 to 9.00 | 6.00 to 7.00 | C[C@@H]1NC(=O)CCSCc2cccc(c2)CSC[C@@H](C(N)=O)NC(=O)[C@@H]2CCCN2C(=O)[C@H](Cc2ccc(C(F)(F)F)cc2)NC(=O)[C@H](C)NC(=O)[C@@H]2CCCN2C(=O)[C@H](Cc2c[nH]c3ccc(F)cc23)NC(=O)[C@H](Cc2c[nH]c3ccc(F)cc23)NC(=O)[C@@H](C)NC1=O [Compound 084] ([Mpa]A[dA][Trp(5-F)][Trp(5-F)]PA[Phe(4-CF3)]PC-NH2; linker 1-10 via mXylylene) |
| 6.00 to 7.00 | 6.00 to 7.00 | C[C@@H]1NC(=O)[C@@H]2CC(F)(F)CN2C(=O)[C@H](Cc2c[nH]c3ccc(F)cc23)NC(=O)[C@H](Cc2c[nH]c3ccc(F)cc23)NC(=O)[C@@H](C)NC(=O)[C@H](CCCCN)NC(=O)CCSCc2cccc(c2)CSC[C@@H](C(N)=O)NC(=O)[C@@H]2CCCN2C(=O)[C@H](Cc2ccc(O)cc2)NC1=O [Compound 036] ([Mpa]K[dA][Trp(5-F)][Trp(5-F)][Pro(4,4-F2)]AYPC-NH2; linker 1-10 via mXylylene) |
| 6.00 to 7.00 | 6.00 to 7.00 | C[C@@H]1NC(=O)[C@@H]2CCCN2C(=O)[C@H](Cc2ccc(F)cc2)NC(=O)[C@H](Cc2c[nH]c3ccc(F)cc23)NC(=O)CNC(=O)[C@H](CCCCN)NC(=O)CCSCc2cccc(c2)CSC[C@@H](C(N)=O)NC(=O)[C@@H]2CCCN2C(=O)[C@H](Cc2ccc(O)cc2)NC1=O [Compound 006] ([Mpa]KG[Trp(5-F)][Phe(4-F)]PAYPC-NH2; linker 1-10 via mXylylene) |
| 7.00 to 9.00 | 7.00 to 9.00 | C[C@@H]1NC(=O)[C@@H]2CCCN2C(=O)[C@H](Cc2cccc(C#N)c2)NC(=O)[C@H](Cc2c[nH]c3ccc(F)cc23)NC(=O)CNC(=O)[C@H](CCCCN)NC(=O)CCSCc2cccc(c2)CSC[C@@H](C(N)=O)NC(=O)[C@@H]2CCCN2C(=O)[C@H](Cc2ccc(O)cc2)NC1=O [Compound 015] ([Mpa]KG[Trp(5-F)][Phe(3-CN)]PAYPC-NH2; linker 1-10 via mXylylene) |
